Results: patent US11123351B2, “Pharmaceutical formulation of 3-alpha-ethynyl-3-beta-hydroxyandrostan-17-one oxime” (priority 2017, dated 2021)
In brackets after ≈: the same amount, converted by molar mass.

Key:
[1] = Clinical Phase I 5 day multiple ascending dose (MAD) study, pharmacokinetics and safety; format: in vivo, human; details: for AUC increase / CMax increase: multiple dose
Description: (§1) In total 90 eligible healthy consenting male subjects (age 18-50 years) were included in the study. The oral formulation used was a capsule containing a lipid solution of 3α-ethynyl-3β-hydroxyandrostan-17-one oxime formulated according to Example 10 above (IND formulation in the following).
(§2) The first in human single ascending dose (SAD) study (EudraCT 2015-004911-19) and the 5 day multiple ascending dose (MAD) study (EudraCT 2016-003651-30) were prospective, randomized, double-blinded and placebo-controlled and designed to assess the safety, tolerability and pharmacokinetic (PK) characteristics of single and multiple ascending oral doses of 3α-ethynyl-3β-hydroxyandrostan-17-one oxime (IND compound) in healthy male volunteers.
MAD: 50 mg once daily; 50 mg twice daily (BID), i.e. 100 mg/day; or 100 mg twice daily (BID), i.e. 200 mg/day.
(§3) The IND compound and allopregnanolone were quantified by UPLC/MS/MS Waters Acquity, C18 column, and Waters XEVO-TQ-S triple quadrupole mass spectrometer. As internal standards D4-[3α-ethynyl-3β-hydroxyandrostan-17-one oxime] and D5-allopregnanolone were used, respectively. For analysis of allopregnanolone oxime-derivatization was used to increase sensitivity. Standard- and QC-samples were prepared into human blank plasma/serum. The detection limit for 3α-ethynyl-3β-hydroxyandrostan-17-one oxime was 1 ng/mL, and for allopregnanolone 0.05 ng/ml (0.15 nmol/L).
(§4) Pharmacokinetic parameters were evaluated using Non-Compartmental Analysis and the software Phoenix WinNonlin® version 6.3 or later (Pharsight Corporation, U.S.A.). Dose proportionality was for the SAD study based on AUC0->∞ and Cmax, and in the MAD study on steady-state AUCτ. The accumulation ratio between the first and last dose was calculated as (steady-state AUCτ/first dose AUC0->∞). Statistical calculations were with IBM SPSS statistics (Version 24, IBM).

[2] = Solubility of Compound I in different vehicles (visual inspection); format: physicochemical
Protocol: The sample was heated, if required to melt the vehicle, to approx. from 15° C.-80° C. and agitated by vortex or stirrer.
Addition was continued until a clear solution was not longer obtained after mixing.
Glycerol monooleate [Cithrol GMO from Croda Health Care] was melted at 50° C. […] The sample was heated and agitated by vortex.
(0.91 g). The sample was heated to approx. 40° C. and agitated by vortex.
The sample was agitated by vortex at room temperature.
The material was stirred at least 30 minutes between each addition.
Upon completed dissolution the temperature was decreased to 30° C. and the solution was filled in hard gelatin capsules of size 0. The target fill weight was 500 mg where after the capsules were capped and kept at −20° C. for 2-3 hours before storage in refrigerator.

GABA-A receptor [3] = experiment: Antagonist study: allopregnanolone-induced decrease in maximal saccadic eye velocity (SEV); format: in vivo, human; details: responding subjects, responsive period
Protocol: (§5) The antagonist study, with the purpose of evaluating the biological activity of the IND compound, (EudraCT 2015-004911-19) was randomized and placebo-controlled with a double-blind three-part cross-over design. Study subjects orally received: placebo (A); 3 mg of IND formulation (B); or 30 mg of IND formulation (C); followed 90 minutes later by an intravenous (i.v.) allopregnanolone injection (0.05 mg/kg) and repeated measurements of maximal saccadic eye velocity (SEV) (Saccadometer Plus, Ober Consulting Sp. z o.o, Poland) and sedation/somnolence (visual analogue scale graded from “Absence of sleepiness” to “Falling asleep) for three hours.

[4] = Solubility of 3α-ethynyl-3β-hydroxyandrostan-17-one oxime in aqueous media; format: physicochemical
GABA-A receptor [5] = experiment: Antagonist study: allopregnanolone-induced sedation (visual analogue scale); format: in vivo, human; details: responding subjects, VAS scores
Protocol: as §5

[6] = Clinical Phase I single ascending dose (SAD) study, pharmacokinetics and safety; format: in vivo, human
Description: as §1, §2, §3, §4

[7] = Serum allopregnanolone exposure in the antagonist study; format: in vivo, human
Protocol: as §5, §3

[8] = day 1, 100 mg BID versus next lower dose
[9] = steady-state, day 5, 100 mg BID versus next lower dose
[10] = allopregnanolone + Compound I 3 mg oral
[11] = allopregnanolone + Compound I 30 mg oral
[12] = single dose 3 mg versus next lower dose
[13] = single dose 10 mg versus next lower dose
[14] = single dose 30 mg versus next lower dose
[15] = single dose 100 mg versus next lower dose
[16] = single dose 200 mg versus next lower dose
[17] = allopregnanolone 0.05 mg/kg i.v. + placebo

C#C[C@]1(O)CC[C@@]2(C)C(CC[C@@H]3[C@@H]2CC[C@]2(C)/C(=N/O)CC[C@@H]32)C1 (stereo partly drawn) [Compound I, 3α-ethynyl-3β-hydroxyandrostan-17-one oxime]
Serious adverse events (SAEs) and dose-limiting toxicity ([1]; healthy adult males, up to 100 mg every 12 hours for 5 days): neither serious adverse events (SAEs) nor dose-limiting toxicity was observed | Increase in AUC0->∞ when the dose was doubled ([1]; human, in vivo): 1.9 times | AUC increase [1, 8]: 1.9 fold | CMax increase [1, 8]: 1.4 fold | AUC increase [1, 9]: 1.9 fold | CMax increase [1, 9]: 1.6 fold | Concentration that could be dissolved ([2]; Capric/caprylic glyceride Imwitor 742, heating temperature 60° C.): 20000 µg/mL | Concentration that could be dissolved ([2]; Capric/caprylic glyceride Imwitor 742, heating temperature 70° C.): 40000 µg/mL | Solubility ([2]; Example 1, Capric/caprylic glycerides, Imwitor 742, 40° C.): 20 to 30 mg/g | Solubility ([2]; Example 2, Glyceryl monooleate, Cithrol GMO, melted at 50° C.): 8 mg/g | Solubility ([2]; Example 3, Oleoyl macrogol-6 glycerides, Labrafil M1944 CS, approx. 40° C.): 5 mg/g | Solubility ([2]; Example 5, Propylenglycol monocaprylate type I, Capryol PGMC, room temperature): 15 mg/g | Solubility ([2]; Example 6, Propylenglycol monocaprylate type II, Capryol 90, room temperature): 23 mg/g | Solubility ([2]; Example 7, Polyoxyethylene-8 caprylic/capric glycerides, Acconon MC8-2, room temperature): 2 mg/g | Solubility ([2]; propylene glycol monolaurate type I (Lauroglycol FCC), oil or lipid, thermodynamic from solid, Example 4, Propylenglycol monolaurate type I, Lauroglycol FCC, room temperature, read-out: Solubility): 6000 µg/mL (≈ 18200 µM) | AUC (ΔSEV) (GABA-A receptor [3]; [10]): −1592 ± 924 deg/s × min | AUC (ΔSEV) (GABA-A receptor [3]; [11]): −909 ± 798 deg/s × min | Solubility ([4]; FaSSIF (fasted-state simulated intestinal fluid), fassif): 7 µg/mL (≈ 21.2 µM) | Solubility ([4]; FeSSIF (fed-state simulated intestinal fluid), fessif): 19 µg/mL (≈ 57.7 µM) | Solubility ([4]; SGF (simulated gastric fluid), simulated gastric fluid): 0.2 µg/mL (≈ 0.607 µM) | Solubility ([4]; water): 1.5 µg/mL (≈ 4.55 µM) | AUC (ΔSedation) (GABA-A receptor [5]; [10]): 698 ± 332 mm × min | AUC (ΔSedation) (GABA-A receptor [5]; [11]): 416 ± 469 mm × min | Serious adverse events (SAEs) and dose-limiting toxicity ([6]; healthy adult males, single dose up to 200 mg): neither serious adverse events (SAEs) nor dose-limiting toxicity was observed | Dose proportionality constant β for AUC0-∞ ([6]; human, in vivo, po, 200 mg): 1.12 | Dose proportionality constant β for CMax ([6]; human, in vivo, po, 200 mg): 1.01 | AUC(0-inf) ([6]; male, human, in vivo, 1 mg): 67 ng·h/mL | Cmax ([6]; male, human, in vivo, 1 mg): 0.013 µg/mL | AUC(0-inf) ([6]; male, human, in vivo, 3 mg): 215 ng·h/mL | Cmax ([6]; male, human, in vivo, 3 mg): 0.044 µg/mL | AUC(0-inf) ([6]; male, human, in vivo, 10 mg): 785 ng·h/mL | Cmax ([6]; male, human, in vivo, 10 mg): 0.149 µg/mL | AUC(0-inf) ([6]; male, human, in vivo, 30 mg): 2560 ng·h/mL | Cmax ([6]; male, human, in vivo, 30 mg): 0.464 µg/mL | AUC(0-inf) ([6]; male, human, in vivo, 100 mg): 11900 ng·h/mL | Cmax ([6]; male, human, in vivo, 100 mg): 1.53 µg/mL | AUC(0-inf) ([6]; male, human, in vivo, 200 mg): 25800 ng·h/mL | Cmax ([6]; male, human, in vivo, 200 mg): 2.77 µg/mL | Tmax ([6]; male, human, in vivo, po): 1 to 2 h | AUC increase [6, 12]: 3.2 fold | CMax increase [6, 12]: 3.4 fold | AUC increase [6, 13]: 3.7 fold | CMax increase [6, 13]: 3.4 fold | AUC increase [6, 14]: 3.3 fold | CMax increase [6, 14]: 3.1 fold | AUC increase [6, 15]: 4.6 fold | CMax increase [6, 15]: 3.3 fold | AUC increase [6, 16]: 2.2 fold | CMax increase [6, 16]: 1.8 fold

CC(=O)[C@H]1CC[C@H]2[C@@H]3CC[C@H]4C[C@H](O)CC[C@]4(C)[C@H]3CC[C@]12C [Allopregnanolone, allopregnanolone, reference compound]
AUC (ΔSEV) (GABA-A receptor [3]; [17]): −3018 ± 656 deg/s × min | AUC (ΔSedation) (GABA-A receptor [5]; [17]): 1928 ± 404 mm × min | Highest serum level ([7]; first study time point after i.v. injection 0.05 mg/kg, three study occasions): 74 to 82 nM | concentration at 10 min ([7]; human, serum, intravenous, 0.05 mg/kg, 10 min after injection, average): ~80 nM
